Assays:
[1] = molecular target: Spliceosome RNA helicase DDX39B (Homo sapiens) (UniProt Q13838)
[2] = molecular target: Ribosome-binding protein 1 (Homo sapiens) (UniProt Q9P2E9)
[3] = molecular target: Prohibitin 1 (Homo sapiens) (UniProt P35232)
[4] = molecular target: Peroxiredoxin-6 (Homo sapiens) (UniProt P30041)
[5] = molecular target: RNA-binding protein FUS (Homo sapiens) (UniProt P35637)
[6] = molecular target: Histone H4 (Homo sapiens) (UniProt P62805)
[7] = molecular target: Ubiquitin carboxyl-terminal hydrolase 5 (Homo sapiens) (UniProt P45974)
[8] = molecular target: Eukaryotic initiation factor 4A-I (Homo sapiens) (UniProt P60842)
[9] = molecular target: Mitotic checkpoint protein BUB3 (Homo sapiens) (UniProt O43684)
[10] = molecular target: Glycogen synthase kinase-3 beta (Homo sapiens) (UniProt P49841)
[11] = molecular target: Integrin alpha-6 (Homo sapiens) (UniProt P23229)
[12] = molecular target: AarF domain-containing protein kinase 1 (Homo sapiens) (UniProt Q86TW2)
[13] = molecular target: Ephrin type-B receptor 3 (Homo sapiens) (UniProt P54753)
[14] = molecular target: Ribonucleoside-diphosphate reductase large subunit (Homo sapiens) (UniProt P23921)
[15] = molecular target: ATP-dependent RNA helicase DDX18 (Homo sapiens) (UniProt Q9NVP1)
[16] = molecular target: Cullin-3 (Homo sapiens) (UniProt Q13618)
[17] = molecular target: Oligosaccharyltransferase complex subunit OSTC (Homo sapiens) (UniProt Q9NRP0)
[18] = molecular target: Alpha-enolase (Homo sapiens) (UniProt P06733)
[19] = molecular target: Adenosylhomocysteinase (Homo sapiens) (UniProt P23526)
[20] = molecular target: 5'-AMP-activated protein kinase subunit beta-2 (Homo sapiens) (UniProt O43741)
[21] = molecular target: Acetyl-CoA carboxylase 1 (Homo sapiens) (UniProt Q13085)
[22] = molecular target: 5'-AMP-activated protein kinase catalytic subunit alpha-1 (Homo sapiens) (UniProt Q13131)
[23] = molecular target: Nucleolar protein 56 (Homo sapiens) (UniProt O00567)
[24] = molecular target: Serine/threonine-protein kinase PLK4 (Homo sapiens) (UniProt O00444)
[25] = molecular target: Cytochrome c oxidase subunit NDUFA4 (Homo sapiens) (UniProt O00483)
[26] = molecular target: ATP-dependent RNA helicase DDX3X (Homo sapiens) (UniProt O00571)
[27] = molecular target: Tyrosine-protein kinase HCK (Homo sapiens) (UniProt P08631)
[28] = molecular target: Carnitine O-palmitoyltransferase 1, liver isoform (Homo sapiens) (UniProt P50416)
[29] = molecular target: Bifunctional phosphoribosylaminoimidazole carboxylase/phosphoribosylaminoimidazole succinocarboxamide synthetase (Homo sapiens) (UniProt P22234)
[30] = molecular target: Ran-specific GTPase-activating protein (Homo sapiens) (UniProt P43487)
[31] = molecular target: Protein kinase C alpha type (Homo sapiens) (UniProt P17252)
[32] = molecular target: Host cell factor 1 (Homo sapiens) (UniProt P51610)
[33] = molecular target: AP-2 complex subunit alpha-1 (Homo sapiens) (UniProt O95782)
[34] = molecular target: Cystatin-B (Homo sapiens) (UniProt P04080)
[35] = molecular target: Ubiquitin-associated protein 2 (Homo sapiens) (UniProt Q5T6F2)
[36] = molecular target: AP-1 complex subunit mu-1 (Homo sapiens) (UniProt Q9BXS5)
[37] = molecular target: Serine/threonine-protein kinase Nek9 (Homo sapiens) (UniProt Q8TD19)
[38] = molecular target: Peptidyl-prolyl cis-trans isomerase H (Homo sapiens) (UniProt O43447)
[39] = molecular target: Adenosine 3'-phospho 5'-phosphosulfate transporter 1 (Homo sapiens) (UniProt Q8TB61)
[40] = molecular target: Small ribosomal subunit protein uS9 (Homo sapiens) (UniProt P62249)
[41] = molecular target: Lipopolysaccharide-responsive and beige-like anchor protein (Homo sapiens) (UniProt P50851)
[42] = molecular target: General transcription factor II-I (Homo sapiens) (UniProt P78347)
[43] = molecular target: dCTP pyrophosphatase 1 (Homo sapiens) (UniProt Q9H773)
[44] = molecular target: TBC1 domain family member 5 (Homo sapiens) (UniProt Q92609)
[45] = molecular target: Extended synaptotagmin-1 (Homo sapiens) (UniProt Q9BSJ8)
[46] = molecular target: RAC-gamma serine/threonine-protein kinase (Homo sapiens) (UniProt Q9Y243)
Note: assay method not described here.

Sequence of Eukaryotic initiation factor 4A-I (Homo sapiens) (P60842 whole entry): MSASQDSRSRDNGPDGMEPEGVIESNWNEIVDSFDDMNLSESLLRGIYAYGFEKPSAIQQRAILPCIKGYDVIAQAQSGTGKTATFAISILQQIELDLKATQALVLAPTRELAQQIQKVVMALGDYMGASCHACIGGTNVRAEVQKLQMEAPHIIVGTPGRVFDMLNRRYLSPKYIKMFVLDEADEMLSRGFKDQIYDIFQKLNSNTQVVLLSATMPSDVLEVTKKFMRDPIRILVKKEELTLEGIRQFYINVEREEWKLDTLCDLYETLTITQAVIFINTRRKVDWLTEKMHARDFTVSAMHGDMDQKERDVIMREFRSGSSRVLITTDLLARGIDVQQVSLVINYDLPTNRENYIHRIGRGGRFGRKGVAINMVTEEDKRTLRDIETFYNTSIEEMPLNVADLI
Sequence of Carnitine O-palmitoyltransferase 1, liver isoform (Homo sapiens) (P50416 whole entry, canonical isoform): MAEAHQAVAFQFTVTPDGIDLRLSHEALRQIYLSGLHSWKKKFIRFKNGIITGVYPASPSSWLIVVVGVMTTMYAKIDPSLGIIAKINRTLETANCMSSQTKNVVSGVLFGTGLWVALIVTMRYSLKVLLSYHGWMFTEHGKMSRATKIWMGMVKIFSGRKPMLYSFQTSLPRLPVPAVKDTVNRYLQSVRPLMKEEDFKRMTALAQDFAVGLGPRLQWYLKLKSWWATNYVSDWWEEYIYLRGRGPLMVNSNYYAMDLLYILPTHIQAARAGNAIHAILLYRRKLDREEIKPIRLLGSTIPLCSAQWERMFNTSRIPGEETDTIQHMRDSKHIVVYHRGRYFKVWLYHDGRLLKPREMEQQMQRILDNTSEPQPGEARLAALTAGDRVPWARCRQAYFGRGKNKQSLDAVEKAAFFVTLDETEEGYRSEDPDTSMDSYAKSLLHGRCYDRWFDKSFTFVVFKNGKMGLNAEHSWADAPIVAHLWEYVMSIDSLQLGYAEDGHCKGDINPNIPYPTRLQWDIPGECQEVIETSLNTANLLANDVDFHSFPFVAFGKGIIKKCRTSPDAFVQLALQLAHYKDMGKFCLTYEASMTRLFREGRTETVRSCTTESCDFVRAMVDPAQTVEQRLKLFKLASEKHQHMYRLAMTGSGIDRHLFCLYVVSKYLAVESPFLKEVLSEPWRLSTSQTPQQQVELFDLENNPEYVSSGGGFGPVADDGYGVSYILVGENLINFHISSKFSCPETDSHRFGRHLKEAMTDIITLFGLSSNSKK
Sequence of Ribosome-binding protein 1 (Homo sapiens) (Q9P2E9 whole entry): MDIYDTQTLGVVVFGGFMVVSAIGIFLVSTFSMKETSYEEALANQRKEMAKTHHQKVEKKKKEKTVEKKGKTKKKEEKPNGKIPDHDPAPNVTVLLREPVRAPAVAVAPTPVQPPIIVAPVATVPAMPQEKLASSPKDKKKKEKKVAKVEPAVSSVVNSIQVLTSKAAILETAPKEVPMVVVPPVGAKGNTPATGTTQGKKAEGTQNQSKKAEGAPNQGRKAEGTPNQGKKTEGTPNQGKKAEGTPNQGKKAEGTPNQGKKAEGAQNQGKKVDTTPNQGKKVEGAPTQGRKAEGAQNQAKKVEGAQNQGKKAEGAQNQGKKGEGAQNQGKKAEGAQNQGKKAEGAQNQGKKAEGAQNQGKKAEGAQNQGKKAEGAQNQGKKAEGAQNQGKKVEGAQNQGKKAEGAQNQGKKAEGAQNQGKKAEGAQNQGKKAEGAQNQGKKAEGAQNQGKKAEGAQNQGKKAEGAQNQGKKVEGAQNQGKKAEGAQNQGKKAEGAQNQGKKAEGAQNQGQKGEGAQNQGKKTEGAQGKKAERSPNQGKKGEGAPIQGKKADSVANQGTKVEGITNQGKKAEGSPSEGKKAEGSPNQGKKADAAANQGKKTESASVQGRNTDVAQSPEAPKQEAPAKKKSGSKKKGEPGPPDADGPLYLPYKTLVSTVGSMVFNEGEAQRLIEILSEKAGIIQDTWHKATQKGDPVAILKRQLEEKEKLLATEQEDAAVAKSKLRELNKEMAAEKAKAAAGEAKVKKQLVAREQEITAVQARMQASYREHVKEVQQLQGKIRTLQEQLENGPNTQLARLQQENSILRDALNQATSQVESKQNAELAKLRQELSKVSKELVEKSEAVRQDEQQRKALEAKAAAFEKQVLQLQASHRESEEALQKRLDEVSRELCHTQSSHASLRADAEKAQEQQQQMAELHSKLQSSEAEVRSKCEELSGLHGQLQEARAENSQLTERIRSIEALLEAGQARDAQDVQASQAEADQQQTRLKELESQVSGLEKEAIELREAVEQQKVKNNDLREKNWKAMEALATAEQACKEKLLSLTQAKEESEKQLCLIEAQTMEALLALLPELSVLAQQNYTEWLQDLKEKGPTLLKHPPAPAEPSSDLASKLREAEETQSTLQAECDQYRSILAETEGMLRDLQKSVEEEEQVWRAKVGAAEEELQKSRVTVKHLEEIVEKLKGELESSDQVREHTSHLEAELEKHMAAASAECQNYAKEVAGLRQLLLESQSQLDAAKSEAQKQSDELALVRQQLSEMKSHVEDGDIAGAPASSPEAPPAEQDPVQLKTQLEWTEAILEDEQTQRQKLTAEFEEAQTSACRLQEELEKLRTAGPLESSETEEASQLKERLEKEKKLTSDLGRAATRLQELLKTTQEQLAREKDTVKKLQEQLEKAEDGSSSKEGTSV
Sequence of dCTP pyrophosphatase 1 (Homo sapiens) (Q9H773 whole entry, the tested form may be a part): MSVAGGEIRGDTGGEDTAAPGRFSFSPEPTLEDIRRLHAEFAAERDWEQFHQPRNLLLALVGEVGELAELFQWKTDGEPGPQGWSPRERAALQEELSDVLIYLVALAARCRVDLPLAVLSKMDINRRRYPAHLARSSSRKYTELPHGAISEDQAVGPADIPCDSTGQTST
Sequence of 5'-AMP-activated protein kinase subunit beta-2 (Homo sapiens) (O43741 whole entry): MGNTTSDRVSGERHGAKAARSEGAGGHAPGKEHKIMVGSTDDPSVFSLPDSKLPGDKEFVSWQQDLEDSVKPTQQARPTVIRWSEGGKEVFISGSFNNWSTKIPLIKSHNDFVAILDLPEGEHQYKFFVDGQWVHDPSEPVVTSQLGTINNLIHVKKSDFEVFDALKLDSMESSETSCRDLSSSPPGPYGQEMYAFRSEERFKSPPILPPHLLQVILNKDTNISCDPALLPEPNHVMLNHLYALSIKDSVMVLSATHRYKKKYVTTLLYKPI
Sequence of ATP-dependent RNA helicase DDX3X (Homo sapiens) (O00571 2-662 limits assumed): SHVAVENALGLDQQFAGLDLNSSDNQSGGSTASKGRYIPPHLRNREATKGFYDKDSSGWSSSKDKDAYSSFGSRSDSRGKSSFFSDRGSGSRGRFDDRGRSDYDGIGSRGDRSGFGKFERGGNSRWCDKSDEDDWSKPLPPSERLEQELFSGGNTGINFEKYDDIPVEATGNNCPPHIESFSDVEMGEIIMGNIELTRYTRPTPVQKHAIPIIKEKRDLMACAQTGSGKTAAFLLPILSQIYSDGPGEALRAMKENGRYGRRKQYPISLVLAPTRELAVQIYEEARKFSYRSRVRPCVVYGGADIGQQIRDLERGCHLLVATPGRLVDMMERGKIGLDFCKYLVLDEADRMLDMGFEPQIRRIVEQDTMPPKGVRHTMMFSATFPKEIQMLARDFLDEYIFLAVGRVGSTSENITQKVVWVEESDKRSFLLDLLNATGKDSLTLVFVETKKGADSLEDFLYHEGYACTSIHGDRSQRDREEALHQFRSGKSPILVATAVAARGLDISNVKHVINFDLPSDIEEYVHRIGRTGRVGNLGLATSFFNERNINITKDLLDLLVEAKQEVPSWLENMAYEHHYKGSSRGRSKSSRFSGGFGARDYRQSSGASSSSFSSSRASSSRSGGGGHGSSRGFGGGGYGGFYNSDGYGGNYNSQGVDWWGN
Sequence of 5'-AMP-activated protein kinase catalytic subunit alpha-1 (Homo sapiens) (Q13131 whole entry, looked up): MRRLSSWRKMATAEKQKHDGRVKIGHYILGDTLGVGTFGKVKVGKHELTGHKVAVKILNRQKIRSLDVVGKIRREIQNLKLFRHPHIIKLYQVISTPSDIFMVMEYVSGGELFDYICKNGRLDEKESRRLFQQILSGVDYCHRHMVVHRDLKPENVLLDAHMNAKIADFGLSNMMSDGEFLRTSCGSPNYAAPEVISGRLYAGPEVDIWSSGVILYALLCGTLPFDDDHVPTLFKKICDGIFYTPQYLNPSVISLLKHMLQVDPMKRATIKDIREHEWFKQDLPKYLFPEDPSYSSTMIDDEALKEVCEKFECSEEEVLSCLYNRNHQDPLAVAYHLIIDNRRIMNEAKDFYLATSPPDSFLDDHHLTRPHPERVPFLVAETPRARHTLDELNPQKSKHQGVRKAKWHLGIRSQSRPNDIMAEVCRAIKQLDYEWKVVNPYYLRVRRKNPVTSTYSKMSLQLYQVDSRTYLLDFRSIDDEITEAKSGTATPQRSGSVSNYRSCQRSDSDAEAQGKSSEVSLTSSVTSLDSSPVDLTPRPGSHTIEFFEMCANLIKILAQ
Sequence of Cystatin-B (Homo sapiens) (P04080 whole entry): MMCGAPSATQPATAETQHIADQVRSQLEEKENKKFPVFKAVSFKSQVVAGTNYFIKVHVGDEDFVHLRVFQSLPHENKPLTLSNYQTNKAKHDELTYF

`Cc1ccc(C(=O)Nc2cccc(C(F)(F)F)c2)cc1Nc1nc(-c2cccnc2)nc2c1cnn2C` showed an ED50 [1] of 18.4 µM, an ED50 [2] of 11.3 µM and an ED50 [3] of 6.34 µM. It also gave an ED50 [4] of 66.2 µM, an ED50 [5] of 0.0175 µM and an ED50 [6] of 4.09 µM. The ED50 [7] was 130 µM, the ED50 [8] was 0.0241 µM and the ED50 [9] was 0.00528 µM. It also gave an ED50 [10] of 4.03 µM, an ED50 [11] of 0.0163 µM and an ED50 [12] of 3.78 µM. It also gave an ED50 [13] of 2.64 µM, an ED50 [14] of 1.67 µM and an ED50 [15] of 0.0244 µM. For the same molecule, the ED50 [16] was 0.0191 µM, the ED50 [17] was 15.6 µM and the ED50 [18] was 4.37 µM. It also gave an ED50 [19] of 4.94 µM, an ED50 [20] of 0.0527 µM and an ED50 [21] of 16.4 µM. It also gave an ED50 [22] of 13.2 µM, an ED50 [23] of 13.1 µM and an ED50 [24] of 0.174 µM. It also gave an ED50 [25] of 13.5 µM, an ED50 [26] of 3.01 µM and an ED50 [27] of 22 µM. It also gave an ED50 [28] of 0.0014 µM, an ED50 [29] of 0.0205 µM and an ED50 [30] of 3.63 µM. For the same molecule, the ED50 [31] was 0.151 µM, the ED50 [32] was 1.41 µM and the ED50 [33] was 0.217 µM. For the same molecule, the ED50 [34] was 6.95 µM, the ED50 [35] was 111 µM and the ED50 [36] was 0.0552 µM. For the same molecule, the ED50 [37] was 0.163 µM, the ED50 [38] was 2.05 µM and the ED50 [39] was 0.0218 µM. For the same molecule, the ED50 [40] was 0.0497 µM, the ED50 [41] was 982 µM and the ED50 [42] was 2.77 µM. The ED50 [43] was 5.18 µM, the ED50 [44] was 24 µM and the ED50 [45] was 0.00937 µM. For the same molecule, the ED50 [46] was 0.0059 µM.

In the case of `Cc1ccc(C(=O)Nc2cccc(C(F)(F)F)c2)cc1Nc1nc(-c2cccnc2)nc2nn(C)cc12`, the ED50 [1] is reported as 0.957 µM, the ED50 [2] is reported as 0.277 µM and the ED50 [3] is reported as 1.94 µM. The ED50 [4] was 0.0611 µM, the ED50 [5] was 0.0366 µM and the ED50 [6] was 0.00989 µM. For the same molecule, the ED50 [7] was 0.00988 µM, the ED50 [8] was 58.1 µM and the ED50 [9] was 0.0679 µM. The ED50 [10] was 0.0177 µM, the ED50 [11] was 7.19 µM and the ED50 [12] was 0.0933 µM. For the same molecule, the ED50 [13] was 7.41 µM, the ED50 [14] was 5.74 µM and the ED50 [15] was 0.0164 µM. For the same molecule, the ED50 [16] was 1.09 µM, the ED50 [17] was 1.15 µM and the ED50 [18] was 0.053 µM. It also gave an ED50 [19] of 0.0533 µM, an ED50 [20] of 0.0168 µM and an ED50 [21] of 0.0486 µM. The ED50 [22] was 0.0591 µM, the ED50 [23] was 4 µM and the ED50 [24] was 4.34 µM. The ED50 [25] was 70.3 µM, the ED50 [26] was 0.00683 µM and the ED50 [27] was 0.0555 µM. It also gave an ED50 [28] of 0.0676 µM, an ED50 [29] of 0.0548 µM and an ED50 [30] of 8.14 µM. The ED50 [31] was 0.00201 µM, the ED50 [32] was 0.0523 µM and the ED50 [33] was 4.78 µM. The ED50 [34] was 12.8 µM, the ED50 [35] was 4.5 µM and the ED50 [36] was 0.0914 µM. It also gave an ED50 [37] of 0.0519 µM, an ED50 [38] of 0.0325 µM and an ED50 [39] of 39.2 µM. For the same molecule, the ED50 [40] was 0.345 µM, the ED50 [41] was 0.167 µM and the ED50 [42] was 0.0945 µM. For the same molecule, the ED50 [43] was 0.0305 µM, the ED50 [44] was 0.0265 µM and the ED50 [45] was 6850 µM. The ED50 [46] was 3.14 µM.

Source: ChEMBL document CHEMBL5649169 (ChemMedChem, 2018)
